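A five-concentration, 48-hour dose response in 96-well plates underlies each endpoint, interpolated linearly between surrounding concentrations. GI50 = concentration required for 50% inhibition of growth. TGI is the concentration that stops growth completely.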
Tests used:
Assay in all cases: NCI tumour cell line growth inhibition, 48 h
SF-539 CNS = test system: SF-539 CNS
LOX IMVI melanoma = test system: LOX IMVI melanoma
NCI-H226 lung = test system: NCI-H226 lung
CCRF-CEM leukemia = test system: CCRF-CEM leukemia
RXF 393 renal = test system: RXF 393 renal
MOLT-4 leukemia = test system: MOLT-4 leukemia
SNB-75 CNS = test system: SNB-75 CNS
SK-MEL-5 melanoma = test system: SK-MEL-5 melanoma
HT29 colon = test system: HT29 colon
TK-10 renal = test system: TK-10 renal
NCI/ADR-RES ovarian = test system: NCI/ADR-RES ovarian
EKVX NSCLC = test system: EKVX NSCLC
MDA-MB-231 breast = test system: MDA-MB-231 breast
HS 578T breast = test system: HS 578T breast
UO-31 renal = test system: UO-31 renal
KM12 colon = test system: KM12 colon
A498 renal = test system: A498 renal
NCI-H460 lung = test system: NCI-H460 lung
SK-MEL-28 melanoma = test system: SK-MEL-28 melanoma
SF-268 CNS = test system: SF-268 CNS
MDA-MB-468 breast = test system: MDA-MB-468 breast
OVCAR-3 ovarian = test system: OVCAR-3 ovarian
OVCAR-4 ovarian = test system: OVCAR-4 ovarian
DU-145 prostate = test system: DU-145 prostate
HCT-15 colon = test system: HCT-15 colon
K-562 leukemia = test system: K-562 leukemia
HOP-62 NSCLC = test system: HOP-62 NSCLC
MCF7 breast = test system: MCF7 breast
NCI-H522 lung = test system: NCI-H522 lung
SK-MEL-2 melanoma = test system: SK-MEL-2 melanoma
COLO 205 colon = test system: COLO 205 colon
NCI-H23 lung = test system: NCI-H23 lung
HCC-2998 colon = test system: HCC-2998 colon
U251 CNS = test system: U251 CNS
HL-60(TB) leukemia = test system: HL-60(TB) leukemia
HOP-92 NSCLC = test system: HOP-92 NSCLC
MALME-3M melanoma = test system: MALME-3M melanoma
CAKI-1 renal = test system: CAKI-1 renal
SR leukemia = test system: SR leukemia
MDA-MB-435 = test system: MDA-MB-435
IGROV1 ovarian = test system: IGROV1 ovarian
SN12C renal = test system: SN12C renal
SF-295 CNS = test system: SF-295 CNS
HCT-116 colon = test system: HCT-116 colon
ACHN renal = test system: ACHN renal
786-0 renal = test system: 786-0 renal
RPMI-8226 leukemia = test system: RPMI-8226 leukemia
SW-620 colon = test system: SW-620 colon
OVCAR-5 ovarian = test system: OVCAR-5 ovarian
BT-549 breast = test system: BT-549 breast
UACC-257 melanoma = test system: UACC-257 melanoma
T-47D breast = test system: T-47D breast
UACC-62 melanoma = test system: UACC-62 melanoma
M14 melanoma = test system: M14 melanoma
SK-OV-3 ovarian = test system: SK-OV-3 ovarian
SNB-19 CNS = test system: SNB-19 CNS
OVCAR-8 ovarian = test system: OVCAR-8 ovarian
PC-3 prostate = test system: PC-3 prostate
A549 NSCLC = test system: A549 NSCLC

## COc1ccc(NC(=O)CSc2nnc(-c3ccc(-c4nc5ccc(Cl)cc5[nH]4)cc3)o2)cc1
SF-539 CNS
  GI50: 1.9 µM
  TGI: 4.52 µM
LOX IMVI melanoma
  GI50: 2.29 µM
  TGI: 6.68 µM
NCI-H226 lung
  GI50: 1.94 µM
  TGI: 5.19 µM
CCRF-CEM leukemia
  GI50: 6.86 µM
  TGI: > 100 µM
RXF 393 renal
  GI50: 2.3 µM
  TGI: 5.61 µM
MOLT-4 leukemia
  GI50: 6.46 µM
  TGI: > 100 µM
SNB-75 CNS
  GI50: 1.42 µM
  TGI: 3.86 µM
SK-MEL-5 melanoma
  GI50: 3.02 µM
  TGI: 11.8 µM
HT29 colon
  GI50: 4.9 µM
  TGI: 23.3 µM
TK-10 renal
  GI50: 16.5 µM
  TGI: 30.1 µM
NCI/ADR-RES ovarian
  GI50: 10.2 µM
  TGI: 42.9 µM
EKVX NSCLC
  GI50: 2.67 µM
  TGI: 13.3 µM
MDA-MB-231 breast
  GI50: 3.77 µM
  TGI: 13.8 µM
HS 578T breast
  GI50: 2.28 µM
  TGI: 7.23 µM
UO-31 renal
  GI50: 10.9 µM
  TGI: 23.1 µM
KM12 colon
  GI50: 5.16 µM
  TGI: 25.7 µM
A498 renal
  GI50: 4.26 µM
  TGI: 16 µM
NCI-H460 lung
  GI50: 1.35 µM
  TGI: 4.16 µM
SK-MEL-28 melanoma
  GI50: 1.96 µM
  TGI: 5.79 µM
SF-268 CNS
  GI50: 2.22 µM
  TGI: 5.48 µM
MDA-MB-468 breast
  GI50: 15 µM
  TGI: 38.4 µM
OVCAR-3 ovarian
  GI50: 3.72 µM
  TGI: 14 µM
OVCAR-4 ovarian
  GI50: 3.02 µM
  TGI: 10 µM
DU-145 prostate
  GI50: 2.29 µM
  TGI: 5.61 µM
HCT-15 colon
  GI50: 7.77 µM
  TGI: 84.2 µM
K-562 leukemia
  GI50: 2.74 µM
  TGI: > 100 µM
HOP-62 NSCLC
  GI50: 2.52 µM
  TGI: 5.37 µM
MCF7 breast
  GI50: 4.39 µM
  TGI: 74.2 µM
NCI-H522 lung
  GI50: 2.11 µM
  TGI: 8.03 µM
SK-MEL-2 melanoma
  GI50: 6.96 µM
  TGI: 25.4 µM
COLO 205 colon
  GI50: 19 µM
  TGI: 92.1 µM
NCI-H23 lung
  GI50: 2.97 µM
  TGI: 11.4 µM
HCC-2998 colon
  GI50: 43.5 µM
  TGI: > 100 µM
U251 CNS
  GI50: 4.83 µM
  TGI: 16.5 µM
HL-60(TB) leukemia
  GI50: > 100 µM
  TGI: > 100 µM
HOP-92 NSCLC
  GI50: 2.62 µM
  TGI: 10.6 µM
MALME-3M melanoma
  GI50: 1.9 µM
  TGI: 5.63 µM
CAKI-1 renal
  GI50: 1.54 µM
  TGI: 3.38 µM
SR leukemia
  GI50: 10.3 µM
  TGI: > 100 µM
MDA-MB-435
  GI50: 1.87 µM
  TGI: 8.03 µM
IGROV1 ovarian
  GI50: 12.4 µM
  TGI: 25.3 µM
SN12C renal
  GI50: 3.27 µM
  TGI: 16.3 µM
SF-295 CNS
  GI50: 1.36 µM
  TGI: 4.05 µM
HCT-116 colon
  GI50: 3.91 µM
  TGI: 26.7 µM
ACHN renal
  GI50: 2.69 µM
  TGI: 11.6 µM
786-0 renal
  GI50: 1.74 µM
  TGI: 3.56 µM
RPMI-8226 leukemia
  GI50: 12 µM
  TGI: > 100 µM
SW-620 colon
  GI50: 4.54 µM
  TGI: 20.6 µM
OVCAR-5 ovarian
  GI50: 6.44 µM
  TGI: 22 µM
BT-549 breast
  GI50: 2.75 µM
  TGI: 6.12 µM
UACC-257 melanoma
  GI50: 3.83 µM
  TGI: 23.6 µM
T-47D breast
  GI50: 14.2 µM
  TGI: 57.9 µM
UACC-62 melanoma
  GI50: 3.81 µM
  TGI: 15.3 µM
M14 melanoma
  GI50: 3.74 µM
  TGI: 17.2 µM
SK-OV-3 ovarian
  GI50: 2.87 µM
  TGI: 7.61 µM
SNB-19 CNS
  GI50: 2.54 µM
  TGI: 7.59 µM
OVCAR-8 ovarian
  GI50: 3.58 µM
  TGI: 26 µM
PC-3 prostate
  GI50: 1.61 µM
  TGI: 4.27 µM
A549 NSCLC
  GI50: 2.44 µM
  TGI: 10.7 µM

Reference: PubChem BioAssay (NCI)
